# Test results reported in US8410161B2, “Thioxanthone ring system derivatives” (National Defense Medical Center, priority 2010, dated 2013).
# How the values were obtained:
# [1] = tested on: SF-268; assay: NCI in vitro DTP human cell line screen, SF-268; type: cell-based; conditions: CNS Cancer, 1.00E−5 Molar
# Experimental: (§1) Then, a cell toxicity assay of the cancer lines made by National Cancer Institute will be discussed as follows. The cell toxicity assay is performed by choosing ten compounds (existing certification numbers) from the 59 compounds disclosed in the present invention first.
# [2] = tested on: UACC-257; assay: NCI in vitro DTP human cell line screen, UACC-257; type: cell-based; conditions: Melanoma, 1.00E−5 Molar
# Experimental: as §1
# [3] = tested on: RPMI-8226; assay: NCI in vitro DTP human cell line screen, RPMI-8226; type: cell-based; conditions: Leukemia, 1.00E−5 Molar
# Experimental: as §1
# [4] = tested on: COLO 205; assay: NCI in vitro DTP human cell line screen, COLO 205; type: cell-based; conditions: Colon Cancer, 1.00E−5 Molar
# Experimental: as §1
# [5] = tested on: NCI-H226; assay: NCI in vitro DTP human cell line screen, NCI-H226; type: cell-based; conditions: Non-Small Cell Lung Cancer, 1.00E−5 Molar
# Experimental: as §1
# [6] = tested on: IGROV1; assay: NCI in vitro DTP human cell line screen, IGROV1; type: cell-based; conditions: Ovarian Cancer, 1.00E−5 Molar
# Experimental: as §1
# [7] = tested on: SN12C; assay: NCI in vitro DTP human cell line screen, SN12C; type: cell-based; conditions: Renal Cancer, 1.00E−5 Molar
# Experimental: as §1
# [8] = tested on: NCI/ADR-RES; assay: NCI in vitro DTP human cell line screen, NCI/ADR-RES; type: cell-based; conditions: Ovarian Cancer, 1.00E−5 Molar
# Experimental: as §1
# [9] = tested on: UO-31; assay: NCI in vitro DTP human cell line screen, UO-31; type: cell-based; conditions: Renal Cancer, 1.00E−5 Molar
# Experimental: as §1
# [10] = tested on: SK-MEL-5; assay: NCI in vitro DTP human cell line screen, SK-MEL-5; type: cell-based; conditions: Melanoma, 1.00E−5 Molar
# Experimental: as §1
# [11] = tested on: OVCAR-8; assay: NCI in vitro DTP human cell line screen, OVCAR-8; type: cell-based; conditions: Ovarian Cancer, 1.00E−5 Molar
# Experimental: as §1
# [12] = tested on: OVCAR-3; assay: NCI in vitro DTP human cell line screen, OVCAR-3; type: cell-based; conditions: Ovarian Cancer, 1.00E−5 Molar
# Experimental: as §1
# [13] = tested on: SNB-75; assay: NCI in vitro DTP human cell line screen, SNB-75; type: cell-based; conditions: CNS Cancer, 1.00E−5 Molar
# Experimental: as §1
# [14] = tested on: T-47D; assay: NCI in vitro DTP human cell line screen, T-47D; type: cell-based; conditions: Breast Cancer, 1.00E−5 Molar
# Experimental: as §1
# [15] = tested on: HOP-62; assay: NCI in vitro DTP human cell line screen, HOP-62; type: cell-based; conditions: Non-Small Cell Lung Cancer, 1.00E−5 Molar
# Experimental: as §1
# [16] = tested on: HCC-2998; assay: NCI in vitro DTP human cell line screen, HCC-2998; type: cell-based; conditions: Colon Cancer, 1.00E−5 Molar
# Experimental: as §1
# [17] = tested on: SNB-19; assay: NCI in vitro DTP human cell line screen, SNB-19; type: cell-based; conditions: CNS Cancer, 1.00E−5 Molar
# Experimental: as §1
# [18] = tested on: M14; assay: NCI in vitro DTP human cell line screen, M14; type: cell-based; conditions: Melanoma, 1.00E−5 Molar
# Experimental: as §1
# [19] = tested on: CCRF-CEM; assay: NCI in vitro DTP human cell line screen, CCRF-CEM; type: cell-based; conditions: Leukemia, 1.00E−5 Molar
# Experimental: as §1
# [20] = tested on: A3 cell lines; assay: MTT assay, A3 cell lines (lung cancer stem cell); type: cell-based
# Description: Please to FIG. 4B, various cell viabilities of the A3 cell lines can be obtained through the MTT assay and illustrated in FIG. 4B while the compounds No. 1˜30 are used to treat A3 cell lines, wherein A3 cell lines are lung cancer stem cell.
# [21] = tested on: LOX IMVI; assay: NCI in vitro DTP human cell line screen, LOX IMVI; type: cell-based; conditions: Melanoma, 1.00E−5 Molar
# Experimental: as §1
# [22] = tested on: BT-549; assay: NCI in vitro DTP human cell line screen, BT-549; type: cell-based; conditions: Breast Cancer, 1.00E−5 Molar
# Experimental: as §1
# [23] = tested on: OVCAR-4; assay: NCI in vitro DTP human cell line screen, OVCAR-4; type: cell-based; conditions: Ovarian Cancer, 1.00E−5 Molar
# Experimental: as §1
# [24] = tested on: MOLT-4; assay: NCI in vitro DTP human cell line screen, MOLT-4; type: cell-based; conditions: Leukemia, 1.00E−5 Molar
# Experimental: as §1
# [25] = tested on: ACHN; assay: NCI in vitro DTP human cell line screen, ACHN; type: cell-based; conditions: Renal Cancer, 1.00E−5 Molar
# Experimental: as §1
# [26] = tested on: HOP-92; assay: NCI in vitro DTP human cell line screen, HOP-92; type: cell-based; conditions: Non-Small Cell Lung Cancer, 1.00E−5 Molar
# Experimental: as §1
# [27] = tested on: SK-MEL-2; assay: NCI in vitro DTP human cell line screen, SK-MEL-2; type: cell-based; conditions: Melanoma, 1.00E−5 Molar
# Experimental: as §1
# [28] = tested on: SW-620; assay: NCI in vitro DTP human cell line screen, SW-620; type: cell-based; conditions: Colon Cancer, 1.00E−5 Molar
# Experimental: as §1
# [29] = tested on: DU145; assay: NCI in vitro DTP human cell line screen, DU145; type: cell-based; conditions: Prostate Cancer, 1.00E−5 Molar
# Experimental: as §1
# [30] = tested on: MDA-MB-231/ATCC; assay: NCI in vitro DTP human cell line screen, MDA-MB-231/ATCC; type: cell-based; conditions: Breast Cancer, 1.00E−5 Molar
# Experimental: as §1
# [31] = tested on: K562; assay: NCI in vitro DTP human cell line screen, K562; type: cell-based; conditions: Leukemia, 1.00E−5 Molar
# Experimental: as §1
# [32] = tested on: SK-MEL-28; assay: NCI in vitro DTP human cell line screen, SK-MEL-28; type: cell-based; conditions: Melanoma, 1.00E−5 Molar
# Experimental: as §1
# [33] = tested on: HS 578-T; assay: NCI in vitro DTP human cell line screen, HS 578-T; type: cell-based; conditions: Breast Cancer, 1.00E−5 Molar
# Experimental: as §1
# [34] = tested on: HCT-15; assay: NCI in vitro DTP human cell line screen, HCT-15; type: cell-based; conditions: Colon Cancer, 1.00E−5 Molar
# Experimental: as §1
# [35] = tested on: HT29; assay: NCI in vitro DTP human cell line screen, HT29; type: cell-based; conditions: Colon Cancer, 1.00E−5 Molar
# Experimental: as §1
# [36] = tested on: PC-3; assay: NCI in vitro DTP human cell line screen, PC-3; type: cell-based; conditions: Prostate Cancer, 1.00E−5 Molar
# Experimental: as §1
# [37] = tested on: NCI-H23; assay: NCI in vitro DTP human cell line screen, NCI-H23; type: cell-based; conditions: Non-Small Cell Lung Cancer, 1.00E−5 Molar
# Experimental: as §1
# [38] = tested on: OVCAR-5; assay: NCI in vitro DTP human cell line screen, OVCAR-5; type: cell-based; conditions: Ovarian Cancer, 1.00E−5 Molar
# Experimental: as §1
# [39] = tested on: 60 cancer lines; assay: NCI cell toxicity assay of 60 cancer lines, whole panel summary; type: cell-based, human; conditions: 1.00E−5 Molar
# Experimental: as §1
# [40] = tested on: HCT-116; assay: NCI in vitro DTP human cell line screen, HCT-116; type: cell-based; conditions: Colon Cancer, 1.00E−5 Molar
# Experimental: as §1
# [41] = tested on: MCF7; assay: NCI in vitro DTP human cell line screen, MCF7; type: cell-based; conditions: Breast Cancer, 1.00E−5 Molar
# Experimental: as §1
# [42] = tested on: NCI-H522; assay: NCI in vitro DTP human cell line screen, NCI-H522; type: cell-based; conditions: Non-Small Cell Lung Cancer, 1.00E−5 Molar
# Experimental: as §1
# [43] = tested on: HL-60(TB); assay: NCI in vitro DTP human cell line screen, HL-60(TB); type: cell-based; conditions: Leukemia, 1.00E−5 Molar
# Experimental: as §1
# [44] = tested on: KM12; assay: NCI in vitro DTP human cell line screen, KM12; type: cell-based; conditions: Colon Cancer, 1.00E−5 Molar
# Experimental: as §1
# [45] = tested on: NCI-H322M; assay: NCI in vitro DTP human cell line screen, NCI-H322M; type: cell-based; conditions: Non-Small Cell Lung Cancer, 1.00E−5 Molar
# Experimental: as §1
# [46] = tested on: 786-0; assay: NCI in vitro DTP human cell line screen, 786-0; type: cell-based; conditions: Renal Cancer, 1.00E−5 Molar
# Experimental: as §1
# [47] = tested on: MDA-MB-468; assay: NCI in vitro DTP human cell line screen, MDA-MB-468; type: cell-based; conditions: Breast Cancer, 1.00E−5 Molar
# Experimental: as §1
# [48] = tested on: MALME-3M; assay: NCI in vitro DTP human cell line screen, MALME-3M; type: cell-based; conditions: Melanoma, 1.00E−5 Molar
# Experimental: as §1
# [49] = tested on: SK-OV-3; assay: NCI in vitro DTP human cell line screen, SK-OV-3; type: cell-based; conditions: Ovarian Cancer, 1.00E−5 Molar
# Experimental: as §1
# [50] = tested on: SR; assay: NCI in vitro DTP human cell line screen, SR; type: cell-based; conditions: Leukemia, 1.00E−5 Molar
# Experimental: as §1
# [51] = tested on: TK-10; assay: NCI in vitro DTP human cell line screen, TK-10; type: cell-based; conditions: Renal Cancer, 1.00E−5 Molar
# Experimental: as §1
# [52] = tested on: UACC-62; assay: NCI in vitro DTP human cell line screen, UACC-62; type: cell-based; conditions: Melanoma, 1.00E−5 Molar
# Experimental: as §1
# [53] = tested on: U251; assay: NCI in vitro DTP human cell line screen, U251; type: cell-based; conditions: CNS Cancer, 1.00E−5 Molar
# Experimental: as §1
# [54] = tested on: RXF 393; assay: NCI in vitro DTP human cell line screen, RXF 393; type: cell-based; conditions: Renal Cancer, 1.00E−5 Molar
# Experimental: as §1
# [55] = tested on: A control cell lines; assay: MTT assay, A control cell lines (lung cancer cell); type: cell-based
# Description: Please refer to Table 1 and FIGS. 4A-4C. According to a MTT assay (Table 1), various cell viabilities of the A control cell lines can be obtained and illustrated in FIG. 4A while the compounds No. 2˜30 are used to treat A control cell lines, wherein A control cell lines are lung cancer cell.
# [56] = MTT assay, HEL299 fibroblast; type: cell-based; conditions: human
# Description: Please refer to FIG. 4C, various cell viabilities of the HEL299 cell lines can be obtained through the MTT assay while the compounds No. 1˜30 are used to treat HEL299 cell lines, wherein HEL299 cell lines are fibroblast.
# [57] = tested on: SF-539; assay: NCI in vitro DTP human cell line screen, SF-539; type: cell-based; conditions: CNS Cancer, 1.00E−5 Molar
# Experimental: as §1
# [58] = tested on: NCI-H460; assay: NCI in vitro DTP human cell line screen, NCI-H460; type: cell-based; conditions: Non-Small Cell Lung Cancer, 1.00E−5 Molar
# Experimental: as §1
smiles,measurement,setting,value
"O=c1c2ccccc2sc2c(Cl)c(SCc3ccc(F)cc3)ccc12 [No. 24, 4-Chloro-3-(4-fluorobenzylthio)-9H-thioxanthen-9-one]",Growth Percent,[1],95.00%
same,Growth Percent,[2],103.43%
same,Growth Percent,[3],92.73%
same,Growth Percent,[4],86.59%
same,Growth Percent,[5],92.71%
same,Growth Percent,[6],79.84%
same,Growth Percent,[7],84.46%
same,Growth Percent,[8],92.71%
same,Growth Percent,[9],95.13%
same,Growth Percent,[10],95.97%
same,Growth Percent,[11],85.39%
same,Growth Percent,[12],105.27%
same,Growth Percent,[13],64.79%
same,Growth Percent,[14],81.88%
same,Growth Percent,[15],70.93%
same,Growth Percent,[16],100.08%
same,Growth Percent,[17],77.05%
same,Growth Percent,[18],93.91%
same,Growth Percent,[19],68.02%
same,cell viabilities of A3 cell lines (MTT assay),[20],47.8%
same,Growth Percent,[21],81.78%
same,Growth Percent,[22],88.80%
same,Growth Percent,[23],39.31%
same,Growth Percent,[24],93.42%
same,Growth Percent,[25],60.81%
same,Growth Percent,[26],76.43%
same,Growth Percent,[27],108.61%
same,Growth Percent,[28],78.63%
same,Growth Percent,[29],103.70%
same,Growth Percent,[30],81.64%
same,Growth Percent,[31],90.35%
same,Growth Percent,[32],107.78%
same,Growth Percent,[33],67.70%
same,Growth Percent,[34],84.86%
same,Growth Percent,[35],79.24%
same,Growth Percent,[36],86.19%
same,Growth Percent,[37],93.31%
same,Growth Percent,[38],108.14%
same,"Growth Percent, Mean",[39]; mean over all cell lines,85.42%
same,cancer types with the better inhibition effect (in words),[39]; summary of Table 3,better inhibition effect on Leukemia and central nervous system cancer
same,Growth Percent,[40],76.97%
same,Growth Percent,[41],89.93%
same,Growth Percent,[42],76.14%
same,Growth Percent,[43],109.87%
same,Growth Percent,[44],102.36%
same,Growth Percent,[45],89.87%
same,Growth Percent,[46],91.67%
same,Growth Percent,[47],92.16%
same,Growth Percent,[48],93.42%
same,Growth Percent,[49],90.11%
same,Growth Percent,[50],23.41%
same,Growth Percent,[51],83.61%
same,Growth Percent,[52],85.61%
same,Growth Percent,[53],54.73%
same,Growth Percent,[54],92.20%
same,cell viabilities of A control cell lines (MTT assay),[55],35.5%
same,viability,[56],62.7 ± 4.89%
same,Growth Percent,[57],103.66%
same,Growth Percent,[58],60.27%
